Laboratory results: patent publication US4081441A, “Antibacterial agents” (priority 1977, dated 1978)
Read-outs that look alike come from different tables or passages of the source.

Experiments:
[1] = test system: Pseudomonas aeruginosa A9843A; assay type: in vivo, mice; settings: mouse, in vivo
[2] = test system: Pseudomonas aeruginosa; assay: In vitro bactericidal synergism, broth dilution checkerboard; assay type: cell-based; settings: for MBC: Pseudomonas aeruginosa, drug alone, read-out: Minimum Bactericidal Concentration
[3] = test system: Cl. chauvoei; assay: M.I.C. against anaerobic bacteria, Cl. chauvoei; assay type: cell-based; settings: strain A9561
[4] = test system: Pseudomonas aeruginosa; assay: Minimum Bactericidal Concentration of BL-P1937, at least 99.9% kill, three inoculum sizes; assay type: cell-based
Protocol: The bactericidal in vitro activity of BL-P1937 against Pseudomonas aeruginosa strains was also determined. Three tests were run, using initial inoculum sizes of 2.4 × 10^5, 1.6 × 10^5 and 1.4 × 10^5 cells/ml., respectively, and the M.B.C. was defined as the lowest concentration of antibiotic in mcg./ml. needed to kill at least 99.9% of viable Pseudomonas cells.

[5] = Mouse blood (serum) antibiotic levels after single intramuscular dose; assay type: in vivo; settings: im, mice, 40 mg./kg. i.m., read-out: Blood Level
Protocol: Serum antibiotic levels from mice administered a single intramuscular dose of 40 mg./kg. of BL-[…] or carbenicillin are shown below.

[6] = test system: Pseudomonas aeruginosa; assay: Minimum Inhibitory Concentration, tube dilution, overnight incubation at 37° C.; assay type: cell-based
[7] = mice, 40 mg./kg. i.m., Literature values, cited from earlier work
[8] = test system: Pseudomonas aeruginosa; settings: prior art; cited from earlier work

CC1(C)S[C@@H]2[C@H](NC(=O)[C@H](NC(=O)c3n[nH]c(=O)[nH]c3=O)c3ccc(O)cc3)C(=O)N2[C@H]1C(=O)O [BL-P1908, sodium D(-)-6-(α-(1,2,4-triazine-3,5-dione-6-carboxamido)-4-hydroxyphenylacetamido)penicillanate]
equally effective dosage, drug alone [1]: 5 mg/kg | MBC ([2]; strain A20552): 500 µg/mL | MBC ([2]; strain A21509): 500 µg/mL | MBC ([2]; strain A21510): 100 µg/mL | strain sensitivity ([2]; strain A9843A): sensitive | strain sensitivity ([2]; strain A20480): resistant | strain sensitivity ([2]; strain A20552): sensitive | strain sensitivity ([2]; strain A20620): resistant | strain sensitivity ([2]; strain A21509): sensitive | strain sensitivity ([2]; strain A21510): sensitive | MIC [3]: 4 µg/mL

CC1(C)S[C@@H]2[C@H](NC(=O)[C@H](NC(=O)c3n[nH]c(=S)[nH]c3=O)c3ccc(O)cc3)C(=O)N2[C@H]1C(=O)O [BL-P1937, sodium D(-)-6-(α-(1,2,4-triazine-3-thione-5-one-6-carboxamido)-4-hydroxyphenylacetamido)-penicillanate]
MBC ([4]; strain A9843A, Test 1, inoculum 2.4 × 10^5): 125 µg/mL | MBC ([4]; strain A9910, Test 1, inoculum 2.4 × 10^5, read-out: M.B.C.): 125 µg/mL | MBC ([4]; strain A9910, Test 2, inoculum 1.6 × 10^5, read-out: M.B.C.): 250 µg/mL | MBC ([4]; strain A9910, Test 3, inoculum 1.4 × 10^5, read-out: M.B.C.): 500 µg/mL | MBC ([4]; strain A9926, Test 1, inoculum 2.4 × 10^5, read-out: M.B.C.): 250 µg/mL | MBC ([4]; strain A9926, Test 2, inoculum 1.6 × 10^5, read-out: M.B.C.): 1000 µg/mL | MBC ([4]; strain A9926, Test 3, inoculum 1.4 × 10^5, read-out: M.B.C.): 250 µg/mL | MBC ([4]; strain A20126, Test 1, inoculum 2.4 × 10^5, read-out: M.B.C.): 16 µg/mL | MBC ([4]; strain A20126, Test 2, inoculum 1.6 × 10^5, read-out: M.B.C.): 63 µg/mL | MBC ([4]; strain A20126, Test 3, inoculum 1.4 × 10^5, read-out: M.B.C.): 63 µg/mL | MBC ([4]; strain A20128, Test 1, inoculum 2.4 × 10^5, read-out: M.B.C.): 16 µg/mL | MBC ([4]; strain A20128, Test 2, inoculum 1.6 × 10^5, read-out: M.B.C.): 16 µg/mL | MBC ([4]; strain A20128, Test 3, inoculum 1.4 × 10^5, read-out: M.B.C.): 63 µg/mL | MBC ([4]; strain A20227, Test 1, inoculum 2.4 × 10^5, read-out: M.B.C.): 63 µg/mL | MBC ([4]; strain A20227, Test 2, inoculum 1.6 × 10^5, read-out: M.B.C.): 8 µg/mL | MBC ([4]; strain A20227, Test 3, inoculum 1.4 × 10^5, read-out: M.B.C.): 16 µg/mL | MBC ([4]; strain A20228, Test 1, inoculum 2.4 × 10^5, read-out: M.B.C.): 125 µg/mL | MBC ([4]; strain A20228, Test 2, inoculum 1.6 × 10^5, read-out: M.B.C.): 500 µg/mL | MBC ([4]; strain A20228, Test 3, inoculum 1.4 × 10^5, read-out: M.B.C.): 250 µg/mL | MBC ([4]; strain A20546, Test 1, inoculum 2.4 × 10^5, read-out: M.B.C.): 250 µg/mL | MBC ([4]; strain A20546, Test 2, inoculum 1.6 × 10^5, read-out: M.B.C.): 1000 µg/mL | MBC ([4]; strain A20546, Test 3, inoculum 1.4 × 10^5, read-out: M.B.C.): 500 µg/mL | MBC ([4]; strain A20557, Test 1, inoculum 2.4 × 10^5, read-out: M.B.C.): 250 µg/mL | MBC ([4]; strain A20557, Test 2, inoculum 1.6 × 10^5, read-out: M.B.C.): 1000 µg/mL | MBC ([4]; strain A20557, Test 3, inoculum 1.4 × 10^5, read-out: M.B.C.): 500 µg/mL | MBC ([4]; strain A20574, Test 1, inoculum 2.4 × 10^5, read-out: M.B.C.): 250 µg/mL | MBC ([4]; strain A20574, Test 2, inoculum 1.6 × 10^5, read-out: M.B.C.): 250 µg/mL | MBC ([4]; strain A20574, Test 3, inoculum 1.4 × 10^5, read-out: M.B.C.): 500 µg/mL | MBC ([4]; strain A20602, Test 1, inoculum 2.4 × 10^5, read-out: M.B.C.): 250 µg/mL | MBC ([4]; strain A20602, Test 2, inoculum 1.6 × 10^5, read-out: M.B.C.): 500 µg/mL | MBC ([4]; strain A20602, Test 3, inoculum 1.4 × 10^5, read-out: M.B.C.): 500 µg/mL | MBC ([4]; strain A20616, Test 1, inoculum 2.4 × 10^5, read-out: M.B.C.): 125 µg/mL | MBC ([4]; strain A20616, Test 2, inoculum 1.6 × 10^5, read-out: M.B.C.): 250 µg/mL | MBC ([4]; strain A20616, Test 3, inoculum 1.4 × 10^5, read-out: M.B.C.): 500 µg/mL | MBC ([4]; strain A20641, Test 1, inoculum 2.4 × 10^5, read-out: M.B.C.): 125 µg/mL | MBC ([4]; strain A20641, Test 2, inoculum 1.6 × 10^5, read-out: M.B.C.): 250 µg/mL | MBC ([4]; strain A20641, Test 3, inoculum 1.4 × 10^5, read-out: M.B.C.): 250 µg/mL | MBC ([4]; strain A20717, Test 1, inoculum 2.4 × 10^5, read-out: M.B.C.): 500 µg/mL | MBC ([4]; strain A20717, Test 2, inoculum 1.6 × 10^5, read-out: M.B.C.): 1000 µg/mL | MBC ([4]; strain A20717, Test 3, inoculum 1.4 × 10^5, read-out: M.B.C.): > 1000 µg/mL | MBC ([4]; strain A20726, Test 1, inoculum 2.4 × 10^5, read-out: M.B.C.): 32 µg/mL | MBC ([4]; strain A20726, Test 2, inoculum 1.6 × 10^5, read-out: M.B.C.): 250 µg/mL | MBC ([4]; strain A20726, Test 3, inoculum 1.4 × 10^5, read-out: M.B.C.): 500 µg/mL | MBC ([4]; strain A21336, Test 1, inoculum 2.4 × 10^5, read-out: M.B.C.): 250 µg/mL | MBC ([4]; strain A21336, Test 2, inoculum 1.6 × 10^5, read-out: M.B.C.): 500 µg/mL | MBC ([4]; strain A21336, Test 3, inoculum 1.4 × 10^5, read-out: M.B.C.): 500 µg/mL | concentration at 0.25 h ([5]; 15 min.): 19900 ng/mL | concentration at 0.5 h ([5]; 30 min.): 10300 ng/mL | concentration at 1 h ([5]; 60 min.): < 2200 ng/mL | concentration at 1.5 h ([5]; 90 min.): < 2200 ng/mL | MIC ([6]; strain A9910, Test 1): 1 µg/mL | MIC ([6]; strain A9910, Test 2): 2 µg/mL | MIC ([6]; strain A9910, Test 3): 4 µg/mL | MIC ([6]; strain A9926, Test 1): 2 µg/mL | MIC ([6]; strain A9926, Test 2): 4 µg/mL | MIC ([6]; strain A9926, Test 3): 2 µg/mL | MIC ([6]; strain A20126, Test 2): 8 µg/mL | MIC ([6]; strain A20126, Test 3): 4 µg/mL | MIC ([6]; strain A20128, Test 1): 2 µg/mL | MIC ([6]; strain A20128, Test 2): 2 µg/mL | MIC ([6]; strain A20128, Test 3): 2 µg/mL | MIC ([6]; strain A20227, Test 1): 4 µg/mL | MIC ([6]; strain A20227, Test 2): 4 µg/mL | MIC ([6]; strain A20227, Test 3): 2 µg/mL | MIC ([6]; strain A20228, Test 1): 2 µg/mL | MIC ([6]; strain A20228, Test 2): 8 µg/mL | MIC ([6]; strain A20228, Test 3): 2 µg/mL | MIC ([6]; strain A20546, Test 1): 2 µg/mL | MIC ([6]; strain A20546, Test 2): 2 µg/mL | MIC ([6]; strain A20546, Test 3): 2 µg/mL | MIC ([6]; strain A20557, Test 1): 2 µg/mL | MIC ([6]; strain A20557, Test 2): 4 µg/mL | MIC ([6]; strain A20557, Test 3): 4 µg/mL | MIC ([6]; strain A20574, Test 1): 4 µg/mL | MIC ([6]; strain A20574, Test 2): 2 µg/mL | MIC ([6]; strain A20574, Test 3): 2 µg/mL | MIC ([6]; strain A20602, Test 1): 4 µg/mL | MIC ([6]; strain A20602, Test 2): 8 µg/mL | MIC ([6]; strain A20602, Test 3): 2 µg/mL | MIC ([6]; strain A20616, Test 1): 2 µg/mL | MIC ([6]; strain A20616, Test 2): 4 µg/mL | MIC ([6]; strain A20616, Test 3): 4 µg/mL | MIC ([6]; strain A20641, Test 1): 8 µg/mL | MIC ([6]; strain A20641, Test 2): 8 µg/mL | MIC ([6]; strain A20641, Test 3): 8 µg/mL | MIC ([6]; strain A20717, Test 1): 16 µg/mL | MIC ([6]; strain A20717, Test 2): 32 µg/mL | MIC ([6]; strain A20717, Test 3): 16 µg/mL | MIC ([6]; strain A20726, Test 1): 2 µg/mL | MIC ([6]; strain A20726, Test 2): 8 µg/mL | MIC ([6]; strain A20726, Test 3): 8 µg/mL | MIC ([6]; strain A21336, Test 1): 4 µg/mL | MIC ([6]; strain A21336, Test 2): 8 µg/mL | MIC ([6]; strain A21336, Test 3): 4 µg/mL

CC1(C)S[C@@H]2[C@H](NC(=O)C(C(=O)O)c3ccccc3)C(=O)N2[C@H]1C(=O)O (some centres unmarked) [Carbenicillin, reference compound]
Blood Level ([7]; 15 min.): 18100 ng/mL | Blood Level ([7]; 30 min.): 8100 ng/mL | Blood Level ([7]; 60 min.): < 4600 ng/mL | Blood Level ([7]; 90 min.): < 4600 ng/mL | potency against Pseudomonas aeruginosa [8]: relatively low potency
